Tests used:
Assay type in all cases: cell-based
human TLR7 = target: T1, human TLR7 (Homo sapiens, UniProt Q9NYK1); experiment: Human TLR7-specific reporter gene assay; conditions: EC50 in human TLR7-specific reporter gene assay; Inactive = EC50 >100 μM
T1 sequence (Q9NYK1 27-1049): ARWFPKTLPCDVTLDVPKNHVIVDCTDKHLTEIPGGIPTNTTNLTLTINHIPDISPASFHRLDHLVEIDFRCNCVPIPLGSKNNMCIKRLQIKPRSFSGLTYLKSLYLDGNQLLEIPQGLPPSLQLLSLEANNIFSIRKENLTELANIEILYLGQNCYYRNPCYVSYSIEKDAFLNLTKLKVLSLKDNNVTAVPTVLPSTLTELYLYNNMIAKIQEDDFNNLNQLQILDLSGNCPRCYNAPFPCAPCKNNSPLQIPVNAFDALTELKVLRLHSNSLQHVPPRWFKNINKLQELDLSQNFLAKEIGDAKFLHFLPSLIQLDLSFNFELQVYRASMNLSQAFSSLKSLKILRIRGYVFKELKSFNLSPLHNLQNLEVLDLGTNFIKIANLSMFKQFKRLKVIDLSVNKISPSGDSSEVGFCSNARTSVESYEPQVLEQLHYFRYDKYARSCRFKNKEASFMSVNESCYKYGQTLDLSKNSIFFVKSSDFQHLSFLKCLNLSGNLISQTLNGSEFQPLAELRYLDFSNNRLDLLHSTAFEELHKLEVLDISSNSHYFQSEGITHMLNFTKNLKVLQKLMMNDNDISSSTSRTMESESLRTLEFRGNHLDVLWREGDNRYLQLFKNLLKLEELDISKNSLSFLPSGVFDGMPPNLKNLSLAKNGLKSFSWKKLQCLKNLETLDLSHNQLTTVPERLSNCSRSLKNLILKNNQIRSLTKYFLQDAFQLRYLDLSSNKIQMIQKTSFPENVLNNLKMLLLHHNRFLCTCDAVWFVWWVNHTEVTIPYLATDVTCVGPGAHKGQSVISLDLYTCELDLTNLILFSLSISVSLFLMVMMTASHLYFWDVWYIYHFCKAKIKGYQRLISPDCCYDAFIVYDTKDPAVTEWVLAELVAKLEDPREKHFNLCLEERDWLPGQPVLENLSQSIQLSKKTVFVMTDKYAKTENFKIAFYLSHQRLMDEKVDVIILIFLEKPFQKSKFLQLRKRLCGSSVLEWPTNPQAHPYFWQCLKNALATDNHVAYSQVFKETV

human TLR7 or human TLR8 = conditions: primary TLR8/TLR7 reporter gene assays, receptor not given
human TLR8 = target: T2, human TLR8 (Homo sapiens, UniProt Q9NR97); experiment: Human TLR8-specific reporter gene assay; conditions: EC50 in human TLR8-specific reporter gene assay; Inactive = EC50 >100 μM
T2 sequence (Q9NR97 27-1041): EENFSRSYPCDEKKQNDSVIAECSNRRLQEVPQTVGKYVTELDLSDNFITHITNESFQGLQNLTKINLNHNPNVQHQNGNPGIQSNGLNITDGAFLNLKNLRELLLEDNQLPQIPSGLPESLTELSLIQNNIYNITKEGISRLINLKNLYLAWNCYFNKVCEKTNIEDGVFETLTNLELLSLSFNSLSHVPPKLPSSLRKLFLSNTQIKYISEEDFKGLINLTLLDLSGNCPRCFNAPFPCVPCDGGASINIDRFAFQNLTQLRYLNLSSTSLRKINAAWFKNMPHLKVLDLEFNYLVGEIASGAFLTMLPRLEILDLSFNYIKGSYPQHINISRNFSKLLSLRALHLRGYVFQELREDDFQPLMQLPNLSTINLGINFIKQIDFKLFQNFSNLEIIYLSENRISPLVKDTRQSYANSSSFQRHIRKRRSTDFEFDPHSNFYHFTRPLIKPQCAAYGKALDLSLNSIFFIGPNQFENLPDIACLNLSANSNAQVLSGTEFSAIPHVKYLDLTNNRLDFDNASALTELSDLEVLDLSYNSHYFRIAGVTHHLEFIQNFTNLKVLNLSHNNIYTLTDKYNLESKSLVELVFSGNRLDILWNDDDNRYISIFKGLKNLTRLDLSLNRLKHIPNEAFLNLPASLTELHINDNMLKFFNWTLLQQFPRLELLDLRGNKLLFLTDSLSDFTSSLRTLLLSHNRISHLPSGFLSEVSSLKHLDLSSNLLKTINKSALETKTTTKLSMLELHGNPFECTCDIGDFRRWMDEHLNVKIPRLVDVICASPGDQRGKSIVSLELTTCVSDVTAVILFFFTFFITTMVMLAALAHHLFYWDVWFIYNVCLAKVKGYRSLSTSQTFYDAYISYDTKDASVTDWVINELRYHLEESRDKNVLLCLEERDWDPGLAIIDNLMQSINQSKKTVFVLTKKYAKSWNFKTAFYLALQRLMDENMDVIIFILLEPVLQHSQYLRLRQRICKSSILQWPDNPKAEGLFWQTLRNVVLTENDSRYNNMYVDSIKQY

| Agonistic Activity (μM) TLR7 (human TLR7) | Agonistic Activity (μM) TLR8 (human TLR8) | Structure (SMILES) | agonistic activity (in words) (human TLR7 or human TLR8) |
| --- | --- | --- | --- |
| Inactive | Inactive | CCCCc1nc2c(NC(C)=O)nc3ccccc3c2s1 [Compound 18b, N-(2-butylthiazolo[4,5-c]quinolin-4-yl)acetamide] | selective loss of activity |
| Inactive | Inactive | CCCc1nc2c(N)nc3ccc([N+](=O)[O-])cc3c2s1 [Compound 9, 8-nitro-2-propylthiazolo[4,5-c]quinolin-4-amine] | inactive |
| Inactive | Inactive | CCCCCCNc1nc2ccccc2c2sc(CCC)nc12 [Compound 15b, N-hexyl-2-propylthiazolo[4,5-c]quinolin-4-amine] | devoid of any agonistic activity |
| Inactive | Inactive | CCCCCCCCCCCCCCCC(=O)Nc1nc2ccccc2c2sc(CCC)nc12 [Compound 15h, N-(2-propylthiazolo[4,5-c]quinolin-4-yl)palmitamide] | inactive |
| Inactive | Inactive | CCCCCCCC(=O)Nc1nc2ccccc2c2sc(CCC)nc12 [Compound 15g, N-(2-propylthiazolo[4,5-c]quinolin-4-yl)octanamide] | inactive |
| Inactive | Inactive | CCCc1nc2c(NC(=O)c3ccccc3)nc3ccccc3c2s1 [Compound 15i, N-(2-propylthiazolo[4,5-c]quinolin-4-yl)benzamide] | entirely inactive |
| Inactive | Inactive | CC(C)(C)CCc1nc2c(N)nc3ccccc3c2s1 [Compound 8m, 2-(3,3-dimethylbutyl)thiazolo[4,5-c]quinolin-4-amine] | inactive |
| Inactive | Inactive | CCCC(=O)Nc1ccc2nc(N)c3nc(CCC)sc3c2c1 [Compound 13b, N-(4-amino-2-propylthiazolo[4,5-c]quinolin-8-yl)butyramide] | inactive |
| Inactive | Inactive | CCCc1nc2c(N)nc3ccc(Br)cc3c2s1 [Compound 14, 8-bromo-2-propylthiazolo[4,5-c]quinolin-4-amine] | inactive |
| Inactive | Inactive | CCCCCCNc1ccc2nc(N)c3nc(CCC)sc3c2c1 [Compound 13a, N^8-hexyl-2-propylthiazolo[4,5-c]quinoline-4,8-diamine] | inactive |
| Inactive | Inactive | CC(C)CCc1nc2c(N)nc3ccccc3c2s1 [Compound 8l, 2-isopentylthiazolo[4,5-c]quinolin-4-amine] | entirely inactive |
| Inactive | Inactive | CCCc1nc2c(NC(=N)N)nc3ccccc3c2s1 [Compound 17, 1-(2-propylthiazolo[4,5-c]quinolin-4-yl)guanidine] | inactive |
| Inactive | Inactive | CC(C)(C)Cc1nc2c(N)nc3ccccc3c2s1 [Compound 8k, 2-neopentylthiazolo[4,5-c]quinolin-4-amine] | inactive |
| Inactive | Inactive | CCCc1nc2c(NC(N)=O)nc3ccccc3c2s1 [Compound 15q, 1-(2-propylthiazolo[4,5-c]quinolin-4-yl)urea] | inactive |
| Inactive |  | CCCC(=O)Nc1nc2ccccc2c2sc(CCC)nc12 [Compound 15f, N-(2-propylthiazolo[4,5-c]quinolin-4-yl)butyramide] | active |
